Measured values: US8389541B2, “Inhibitors of protein tyrosine kinase activity” (MethylGene Inc., priority 2007, dated 2013)

These molecules were tested on CNV progression (assay: In vivo choroidal neovascularization (CNV) model, laser-induced). Details: Brown-Norway rats, intravitreal injection 30 and/or 100 nmol/eye on Day 1 and/or Day 3 and/or Day 7, CNV area on Day 10.
Description: This test measures the capacity of compounds to inhibit CNV progression. CNV is the main cause of severe vision loss in patients suffering from age-related macular degeneration (AMD).
Male Brown-Norway rats (Japan Clea Co., Ltd.) were used in these studies.
Rats were anesthetized by intraperitoneal injection of pentobarbital, and the right pupil was dilated with 0.5% tropicamide and 0.5% phenylephrine hydrochloride. The right eye received 6 laser burns between retinal vessels using a slit lamp delivery system of Green laser Photocoagulator (Nidex Inc., Japan), and microscope slide glass with Heaton™ (AMO Inc) used as a contact lens. The laser power was 100 or 200 mW for 0.1 second and spot diameter was 100 μm. At the time of laser burn, bubble production was observed, which is an indication of rupture of Bruch's membrane which is important for CNV generation.
Rats were divided into the groups based on their body weight using SAS software (SAS institute Japan, R8.1) after laser irradiation (Day 0). After animals were anesthetized, and the right pupil dilated (as above mentioned), the right eye of the animal received the compound or vehicle by intravitreal injection (5 or 10 μL/eye) at doses of 30 and/or 100 nmol/eyeon Day 1 and/or Day 3 and/or Day 7. The compounds were dissolved or suspended in CBS, PBS, or other adequate vehicles before injection.
On Day 10, the animals were anesthetized with ether, and high molecular weight fluorescein isothiocyanate (FITC)-dextran (SIGMA, 2×10^6 MW) was injected via a tail vein (20 mg/rat). About 30 min after FITC-dextran injection, animals were euthanized by ether or carbon dioxide, and the eyes were removed and fixed with 10% formaline neutral buffer solution. After over 1 hour of fixation, RPE-choroid-sclera flat mounts were obtained by removing cornea, lens and retina from the eyeballs. The flat mounts were mounted in 50% glycerol on a microscope slide, and the portion burned by laser was photographed using a fluorescence microscope (Nikon Corporation, excitation filter:465-495 nm, absorption filter:515-555 nm). The CNV area was obtained by measurement of hyper-fluorescence area observed on the photograph using Scion image.
The average CNV area of 6 burns was used as an individual value of CNV area, and the average CNV area of compound treated group was compared with that of the vehicle-treated group. […]
`COCCNCc1cnc(-c2cc3nccc(Oc4ccc(NC(=O)CC(=O)Nc5ccccc5)cc4F)c3s2)n1C` [13(49), N^1-(3-Fluoro-4-(2-(5-((2-methoxyethylamino)methyl)-1-methyl-1H-imidazol-2-yl)thieno[3,2-b]pyridin-7-yloxy)phenyl)-N^3-phenylmalonamide] was tested, and the “% Inhibition of CNV Progression” value was “A (greater than or equal to 30% inhibition)”. `COCCNCc1cnc(-c2cc3nccc(Oc4ccc(NC(=O)CC(=O)N(C)c5ccccc5)cc4F)c3s2)n1C` [14(50), N^1-(3-Fluoro-4-(2-(5-((2-methoxyethylamino)methyl)-1-methyl-1H-imidazol-2-yl)thieno[3,2-b]pyridin-7-yloxy)phenyl)-N3-methyl-N^3-phenylmalonamide] was tested, and the “% Inhibition of CNV Progression” value was “B (≧10% to <30% inhibition)”. With `CN(C(=O)CC(=O)Nc1ccc(Oc2ccnc3cc(-c4ccc(CNCCS(C)(=O)=O)cc4)sc23)c(F)c1)c1ccccc1` [80(187), N1-(3-fluoro-4-(2-(4-((2-(methylsulfonyl)ethylamino)methyl)phenyl)thieno[3,2-b]pyridin-7-yloxy)phenyl)-N3-methyl-N3-phenylmalonamide] the “% Inhibition of CNV Progression” value was “A (greater than or equal to 30% inhibition)”. `COCCNCc1ccc(-c2cc3nccc(Oc4ccc(NC(=O)CC(=O)N(C)c5ccccc5)cc4F)c3s2)nc1` [116(223), N1-(3-fluoro-4-(2-(5-((2-methoxyethylamino)methyl)pyridin-2-yl)thieno[3,2-b]pyridin-7-yloxy)phenyl)-N3-methyl-N3-phenylmalonamide] was tested, and the “% Inhibition of CNV Progression” value was “B (≧10% to <30% inhibition)”. For `COCCNCc1ccc(-c2cc3nccc(Oc4ccc(NC(=O)Nc5cc(C(C)(C)C)on5)cc4F)c3s2)nc1` [145(252), 1-(5-tert-butylisoxazol-3-yl)-3-(3-fluoro-4-(2-(5-((2-methoxyethylamino)methyl)pyridin-2-yl)thieno[3,2-b]pyridin-7-yloxy)phenyl)urea], the “% Inhibition of CNV Progression” value was “B (≧10% to <30% inhibition)”. In the case of `COCCNCc1ccc(-c2cc3nccc(Oc4ccc(NC(=O)Nc5cc(C(F)(F)F)ccc5F)cc4F)c3s2)nc1` [146(253), 1-(3-fluoro-4-(2-(5-((2-methoxyethylamino)methyl)pyridin-2-yl)thieno[3,2-b]pyridin-7-yloxy)phenyl)-3-(2-fluoro-5-(trifluoromethyl)phenyl)urea], the “% Inhibition of CNV Progression” value is reported as “A (greater than or equal to 30% inhibition)”. For `COCCNCc1ccc(-c2cc3nccc(Oc4ccc(NC(=O)Nc5cccc(C)c5)cc4F)c3s2)nc1` [161(268), 1-(3-fluoro-4-(2-(5-((2-methoxyethylamino)methyl)pyridin-2-yl)thieno[3,2-b]pyridin-7-yloxy)phenyl)-3-m-tolylurea], the “% Inhibition of CNV Progression” value was “B (≧10% to <30% inhibition)”. For `COCCNCc1cccc(-c2cc3nccc(Oc4ccc(NC(=O)Nc5cc(C)on5)cc4F)c3s2)n1` [162(269), 1-(3-fluoro-4-(2-(6-((2-methoxyethylamino)methyl)pyridin-2-yl)thieno[3,2-b]pyridin-7-yloxy)phenyl)-3-(5-methylisoxazol-3-yl)urea], the “% Inhibition of CNV Progression” value was “A (greater than or equal to 30% inhibition)”. In the case of `COCCNCc1cnc(-c2cc3nccc(Oc4ccc(NC(=O)C5(C(=O)Nc6ccc(F)cc6)CC5)cc4F)c3s2)n1C` [163(270), N-(3-fluoro-4-(2-(5-((2-methoxyethylamino)methyl)-1-methyl-1H-imidazol-2-yl)thieno[3,2-b]pyridin-7-yloxy)phenyl)-N-(4-fluorophenyl)cyclopropane-1,1-dicarboxamide], the “% Inhibition of CNV Progression” value is reported as “A (greater than or equal to 30% inhibition)”. For `C=CCNC(=O)Nc1ccc(Oc2ccnc3cc(-c4ccc(CNCCOC)cn4)sc23)c(F)c1` [167(274), 1-allyl-3-(3-fluoro-4-(2-(5-((2-methoxyethylamino)methyl)pyridin-2-yl)thieno[3,2-b]pyridin-7-yloxy)phenyl)urea], the “% Inhibition of CNV Progression” value was “A (greater than or equal to 30% inhibition)”. For `COCCNCc1ccc(-c2cc3nccc(Oc4ccc(NC(=O)NC5CC5)cc4F)c3s2)nc1` [170(277), 1-Cyclopropyl-3-(3-fluoro-4-(2-(5-((2-methoxyethylamino)methyl)pyridin-2-yl)thieno[3,2-b]pyridin-7-yloxy)phenyl)urea], the “% Inhibition of CNV Progression” value was “A (greater than or equal to 30% inhibition)”. In the case of `CCOCCNCc1ccc(-c2cc3nccc(Oc4ccc(NC(=O)Nc5cc(C)ccc5F)cc4F)c3s2)nc1` [173(280), 1-(4-(2-(5-((2-ethoxyethylamino)methyl)pyridin-2-yl)thieno[3,2-b]pyridin-7-yloxy)-3-fluorophenyl)-3-(2-fluoro-5-methylphenyl)urea], the “% Inhibition of CNV Progression” value is reported as “A (greater than or equal to 30% inhibition)”. `NCCCOCCOCCOCCCNCc1ccc(-c2cc3nccc(Oc4ccc(NC(=O)Nc5cc(C(F)(F)F)ccc5F)cc4F)c3s2)nc1` [177(284), 1-(4-(2-(5-(15-Amino-6,9,12-trioxa-2-azapentadecyl)pyridin-2-yl)thieno[3,2-b]pyridin-7-yloxy)-3-fluorophenyl)-3-(2-fluoro-5-(trifluoromethyl)phenyl)urea] was tested, and the “% Inhibition of CNV Progression” value was “A (greater than or equal to 30% inhibition)”.

Each molecule was assayed on U87MG tumor (assay: In vivo solid tumor disease model, U87MG). Details: Mus musculus, U-87 MG, po, 240 h, 20 mg/kg orally daily, 10 days, read-out: Tumor Growth Inhibition (%).
Parameters: species or system mice
Description: (§1) This test measures the capacity of compounds to inhibit solid tumor growth.
(§2) Tumor xenografts are established in the flank of female athymic CD1 mice (Charles River Inc.), by subcutaneous injection of 1×106 U87, A431 or SKLMS cells/mouse. Once established, tumors are then serially passaged s.c. in nude mice hosts. Tumor fragments from these host animals are used in subsequent compound evaluation experiments. For compound evaluation experiments female nude mice weighing approximately 20 g are implanted s.c. by surgical implantation with tumor fragments of ˜30 mg from donor tumors. When the tumors are approximately 100 mm3 in size (˜7-10 days following implantation), the animals are randomized and separated into treatment and control groups. Each group contains 6-8 tumor-bearing mice, each of which is ear-tagged and followed individually throughout the experiment.
(§3) Mice are weighed and tumor measurements are taken by calipers three times weekly, starting on Day 1. These tumor measurements are converted to tumor volume by the well-known formula (L+W/4)3 4/3π. The experiment is terminated when the control tumors reach a size of approximately 1500 mm^3. In this model, the change in mean tumor volume for a compound treated group/the change in mean tumor volume of the control group (non-treated or vehicle treated)×100 (ΔT/ΔC) is subtracted from 100 to give the percent tumor growth inhibition (% TGI) for each test compound. In addition to tumor volumes, body weight of animals is monitored twice weekly for up to 3 weeks.
`COCCNCCn1cc(-c2cc3nccc(Oc4ccc(NC(=S)NC(=O)Cc5ccccc5)cc4F)c3s2)cn1` [drawing 367] was tested, and the inhibition in vivo at 20 mg/kg was 25 to 50%. In the case of `CS(=O)(=O)CCNCc1ccc(-c2cc3nccc(Oc4ccc(NC(=O)C5(C(=O)Nc6ccccc6)CC5)cc4F)c3s2)cc1` [drawing 370], the inhibition in vivo at 20 mg/kg is reported as 50 to 75%.

Same assay, conditions: Mus musculus, U-87 MG, po, 288 h, 20 mg/kg orally daily, 12 days, read-out: Tumor Growth Inhibition (%)
Work on `COCCNCCn1cnc(-c2cc3nccc(Oc4ccc(NC(=S)NC(=O)Cc5ccc(F)cc5)cc4F)c3s2)c1` [drawing 366] yielded an inhibition in vivo at 20 mg/kg of under 25%.

Same assay, conditions: Mus musculus, U-87 MG, po, 312 h, 20 mg/kg orally daily, 13 days, read-out: Tumor Growth Inhibition (%)
With `COCCNCc1cccc(-c2cc3nccc(Oc4ccc(NC(=O)C5(C(=O)Nc6ccc(F)cc6)CC5)cc4F)c3s2)n1` the inhibition in vivo at 20 mg/kg was at least 75%.

These molecules were tested on SKLMS40 tumor (assay: In vivo solid tumor disease model, SKLMS40). Details: Mus musculus, po, 312 h; SKLMS40, 20 mg/kg orally daily, 13 days; read-out: Tumor Growth Inhibition (%).
Parameters: species or system mice
Description: as §1, §2, §3
Molecule `COCCNCc1ccc(-c2cc3nccc(Oc4ccc(NC(=O)C5(C(=O)Nc6ccccc6)CC5)cc4F)c3s2)o1` [drawing 368] has an inhibition in vivo at 20 mg/kg of 50 to 75%. Molecule `COCCNCc1cnc(-c2cc3nccc(Oc4ccc(NC(=S)NC(=O)Cc5ccccc5)cc4F)c3s2)n1C` [drawing 371] has an inhibition in vivo at 20 mg/kg of under 25%.

Same assay, conditions: Mus musculus, po, 360 h; SKLMS40, 20 mg/kg orally daily, 15 days; read-out: Tumor Growth Inhibition (%)
`COCCNCc1ccc(-c2cc3nccc(Oc4ccc(NC(=S)NC(=O)Cc5ccc(F)cc5)c(OC)c4)c3s2)nc1` gave an inhibition in vivo at 20 mg/kg of 25 to 50%. `COCCNCc1ccc(-c2cc3nccc(Oc4ccc(NC(=O)Nc5cc(C)on5)c(OC)c4)c3s2)nc1` was tested, and the inhibition in vivo at 20 mg/kg was at least 75%. In the case of `COCCNCc1ccc(-c2cc3nccc(Oc4ccc(NC(=O)C5(C(=O)Nc6ccc(F)cc6)CC5)c(OC)c4)c3s2)nc1`, the inhibition in vivo at 20 mg/kg is reported as 25 to 50%.

These molecules were tested on A549 tumor (assay: In vivo solid tumor disease model, A549). Details: A549, 20 mg/kg orally daily, 12 days.
Parameters: species or system mice
With `COCCNCc1cnc(-c2cc3nccc(Oc4ccc(NC(=S)NC(=O)Cc5ccccc5)cc4F)c3s2)n1C` [drawing 371] the “Tumor Growth Inhibition (%)” value was “B (tumor growth inhibition of ≧25% but <50%)”. In the case of `COCCNCc1ccc(-c2cc3nccc(Oc4ccc(NC(=O)CC(=O)N(C)c5ccc(F)cc5)cc4F)c3s2)nc1` [drawing 375], the “Tumor Growth Inhibition (%)” value is reported as “A (tumor growth inhibition of less than 25%)”.

What follows are molecules tested on MKN45 tumor (assay: In vivo solid tumor disease model, MKN45). Details: Mus musculus, MKN-45, po, 312 h; MKN45, 20 mg/kg orally daily, 13 days; read-out: Tumor Growth Inhibition (%).
Parameters: species or system mice
`COCCNCc1cnc(-c2cc3nccc(Oc4ccc(NC(=S)NC(=O)Cc5ccccc5)cc4F)c3s2)n1C` [drawing 371] showed an inhibition in vivo at 20 mg/kg of 50 to 75%. `COCCNCc1ccc(-c2cc3nccc(Oc4ccc(NC(=O)CC(=O)N(C)c5ccc(F)cc5)cc4F)c3s2)nc1` [drawing 375] gave an inhibition in vivo at 20 mg/kg of 25 to 50%.
